Results: ChEMBL document CHEMBL1201862, “PubChem BioAssay data set” (2004)
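96-well plates; 48 h exposure; 5 concentrations. Endpoints by linear interpolation between flanking doses. Not reached: highest tested concentration assigned. At the GI50, growth is halved.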 Calls of active or inactive are those of the source. Rule as the data show it: active = GI50 up to about 1.1 µM and inactive = higher.

Experiments:
Assay in all cases: NCI-60 cell line screen, 48 h
OVCAR-8 = test system: OVCAR-8
SK-OV-3 = test system: SK-OV-3
MDA-MB-231 = test system: MDA-MB-231
OVCAR-3 = test system: OVCAR-3
RXF 393 = test system: RXF 393
CAKI-1 = test system: CAKI-1
SW-620 = test system: SW-620
UO-31 = test system: UO-31
LOX IMVI = test system: LOX IMVI
SR = test system: SR
HT-29 = test system: HT-29
OVCAR-5 = test system: OVCAR-5
TK-10 = test system: TK-10
UACC-62 = test system: UACC-62
Malme-3M = test system: Malme-3M
ACHN = test system: ACHN
EKVX = test system: EKVX
CCRF-CEM = test system: CCRF-CEM
SK-MEL-5 = test system: SK-MEL-5

SMILES	GI50 (OVCAR-8)	GI50 (SK-OV-3)	GI50 (MDA-MB-231)	GI50 (OVCAR-3)	GI50 (RXF 393)	GI50 (CAKI-1)	GI50 (SW-620)	GI50 (UO-31)	GI50 (LOX IMVI)	GI50 (SR)	GI50 (HT-29)	GI50 (OVCAR-5)	GI50 (TK-10)	GI50 (UACC-62)	GI50 (Malme-3M)	GI50 (ACHN)	GI50 (EKVX)	GI50 (CCRF-CEM)	GI50 (SK-MEL-5)
O=C(CCn1ccnc1[N+](=O)[O-])NCCCn1ccnc1[N+](=O)[O-]	> 100 µM (inactive)	> 100 µM (inactive)	> 100 µM (inactive)	> 100 µM (inactive)	> 100 µM (inactive)	> 100 µM (inactive)	> 100 µM (inactive)	> 100 µM (inactive)	> 100 µM (inactive)	> 100 µM (inactive)	> 100 µM (inactive)	> 100 µM (inactive)	> 100 µM (inactive)	> 100 µM (inactive)	> 100 µM (inactive)	> 100 µM (inactive)	> 100 µM (inactive)	> 100 µM (inactive)	> 100 µM (inactive)
Cc1cc2c3c(c1)S(=O)(=O)c1cc(Cl)ccc1N3CCC2	> 100 µM (inactive)	> 100 µM (inactive)	83.9 µM (inactive)	> 100 µM (inactive)	55.2 µM (inactive)	> 100 µM (inactive)	> 100 µM (inactive)	> 100 µM (inactive)	> 100 µM (inactive)	> 100 µM (inactive)	> 100 µM (inactive)	> 100 µM (inactive)	> 100 µM (inactive)	> 100 µM (inactive)	> 100 µM (inactive)	> 100 µM (inactive)	> 100 µM (inactive)	> 100 µM (inactive)	> 100 µM (inactive)
O=C1/C(=C/c2cccc(O)c2)COc2ccccc21	7.38 µM (inactive)	21.3 µM (inactive)	8.2 µM (inactive)	2.01 µM (inactive)	10.1 µM (inactive)	3.44 µM (inactive)	2.19 µM (inactive)	10.5 µM (inactive)	1.95 µM (inactive)	2.16 µM (inactive)	3.27 µM (inactive)	8.67 µM (inactive)	15.4 µM (inactive)	3.88 µM (inactive)	8.89 µM (inactive)	1.78 µM (inactive)	16.5 µM (inactive)	1.59 µM (inactive)	9.2 µM (inactive)
Cc1ccc(C(CCO)CCO)nc1	> 100 µM (inactive)	> 100 µM (inactive)	> 100 µM (inactive)	> 100 µM (inactive)	> 100 µM (inactive)	> 100 µM (inactive)	> 100 µM (inactive)	> 100 µM (inactive)	> 100 µM (inactive)	> 100 µM (inactive)	> 100 µM (inactive)	> 100 µM (inactive)	> 100 µM (inactive)	> 100 µM (inactive)	> 100 µM (inactive)	> 100 µM (inactive)	> 100 µM (inactive)	> 100 µM (inactive)	> 100 µM (inactive)
O=c1[nH]c2ccccc2c2oc(-c3ccccc3)nc12	22.4 µM (inactive)	37.2 µM (inactive)	17.3 µM (inactive)	> 100 µM (inactive)	20.4 µM (inactive)	18.9 µM (inactive)	22.9 µM (inactive)	> 100 µM (inactive)	21.3 µM (inactive)	15.9 µM (inactive)	> 100 µM (inactive)	> 100 µM (inactive)	54.6 µM (inactive)	88.3 µM (inactive)	> 100 µM (inactive)	> 100 µM (inactive)	> 100 µM (inactive)	18.4 µM (inactive)	30.5 µM (inactive)
Cn1c2cc(Cl)ccc2c2ccc3c(c21)C(=O)C=CC3=O	28.3 µM (inactive)	> 100 µM (inactive)	26.9 µM (inactive)	11.7 µM (inactive)	21.1 µM (inactive)	13.5 µM (inactive)	4.4 µM (inactive)	45.7 µM (inactive)	42.5 µM (inactive)	6.07 µM (inactive)	31.4 µM (inactive)	86.5 µM (inactive)	26.9 µM (inactive)	21.5 µM (inactive)	16.5 µM (inactive)	16.8 µM (inactive)	> 71.4 µM (inactive)	3.68 µM (inactive)	39.8 µM (inactive)
O=C1/C(=C/c2ccccc2)CCC/C1=C\c1ccc(O)c(CN2CCCCC2)c1	3.78 µM (inactive)	9.1 µM (inactive)	2.77 µM (inactive)	6.98 µM (inactive)	13.8 µM (inactive)	8.07 µM (inactive)	2.39 µM (inactive)	6.92 µM (inactive)	1.99 µM (inactive)	1.05 µM (active)	1.77 µM (inactive)	15.3 µM (inactive)	15.2 µM (inactive)	3.59 µM (inactive)	11.4 µM (inactive)	1.81 µM (inactive)	6.75 µM (inactive)	3.3 µM (inactive)	2.92 µM (inactive)
CN(C)CCCCN1c2ccccc2Sc2cc(N=[N+]=[N-])ccc21	1.69 µM (inactive)	2.2 µM (inactive)	1.71 µM (inactive)	1.89 µM (inactive)	3.3 µM (inactive)	1.84 µM (inactive)	1.87 µM (inactive)	1.83 µM (inactive)	1.56 µM (inactive)	2.54 µM (inactive)	1.55 µM (inactive)	1.89 µM (inactive)	2.02 µM (inactive)	1.85 µM (inactive)	1.82 µM (inactive)	1.99 µM (inactive)	4.15 µM (inactive)	2.01 µM (inactive)	1.73 µM (inactive)
O=C1c2ccccc2C(=O)N1[C@@H](Cc1ccccc1)C(=O)n1cccc1CO	> 100 µM (inactive)	> 100 µM (inactive)	> 100 µM (inactive)	> 100 µM (inactive)	1.02 µM (active)	> 100 µM (inactive)	> 100 µM (inactive)	> 100 µM (inactive)	> 100 µM (inactive)	> 100 µM (inactive)	> 100 µM (inactive)	> 100 µM (inactive)	> 100 µM (inactive)	> 100 µM (inactive)	> 100 µM (inactive)	> 100 µM (inactive)	> 100 µM (inactive)	> 100 µM (inactive)	> 100 µM (inactive)
CO/C(N)=C(C#N)/N=C/c1ccccc1	> 100 µM (inactive)	> 100 µM (inactive)	> 100 µM (inactive)	> 100 µM (inactive)	> 100 µM (inactive)	> 100 µM (inactive)	> 100 µM (inactive)	89.5 µM (inactive)	> 100 µM (inactive)	> 100 µM (inactive)	51.3 µM (inactive)	> 100 µM (inactive)	> 100 µM (inactive)	48 µM (inactive)	40.3 µM (inactive)	> 100 µM (inactive)	66.7 µM (inactive)	50 µM (inactive)	> 100 µM (inactive)
Nc1nc(Cl)cc(NCC2(CO)CC(Cc3ccccc3)C2)n1 (stereo not given)	42.2 µM (inactive)	52 µM (inactive)	42.3 µM (inactive)	51.9 µM (inactive)	20.4 µM (inactive)	> 73.5 µM (inactive)	> 65.6 µM (inactive)	23.4 µM (inactive)	4.37 µM (inactive)	9.27 µM (inactive)	29 µM (inactive)	> 58.7 µM (inactive)	25.6 µM (inactive)	27.5 µM (inactive)	29.4 µM (inactive)	32 µM (inactive)	3.35 µM (inactive)	29.5 µM (inactive)	0.417 µM (active)
O=C1OC(CS(=O)(=O)c2ccccc2)CC1O (stereo not given)	> 100 µM (inactive)	> 100 µM (inactive)	> 100 µM (inactive)	> 100 µM (inactive)	> 100 µM (inactive)	> 100 µM (inactive)	> 100 µM (inactive)	55.6 µM (inactive)	> 100 µM (inactive)	> 100 µM (inactive)	> 100 µM (inactive)	> 100 µM (inactive)	> 100 µM (inactive)	41 µM (inactive)	22.6 µM (inactive)	> 100 µM (inactive)	> 100 µM (inactive)	> 100 µM (inactive)	> 100 µM (inactive)
O=[N+]([O-])c1ccc(Sc2c3ccccc3nc3ccccc23)nc1	22 µM (inactive)	13.2 µM (inactive)	6.14 µM (inactive)	5.74 µM (inactive)	3.28 µM (inactive)	4.88 µM (inactive)	2.08 µM (inactive)	5.08 µM (inactive)	2.24 µM (inactive)	2.47 µM (inactive)	3.06 µM (inactive)	18.6 µM (inactive)	2.96 µM (inactive)	15.3 µM (inactive)	2.11 µM (inactive)	7.87 µM (inactive)	17 µM (inactive)	2.51 µM (inactive)	16.7 µM (inactive)
Cc1sc2c(c1C)/C(=N\O)c1cccn1-2	45.8 µM (inactive)	39.7 µM (inactive)	52.8 µM (inactive)	42.9 µM (inactive)	23.2 µM (inactive)	32.6 µM (inactive)	58.6 µM (inactive)	31.6 µM (inactive)	55.7 µM (inactive)	22.6 µM (inactive)	30.2 µM (inactive)	> 100 µM (inactive)	43.6 µM (inactive)	95.7 µM (inactive)	45.1 µM (inactive)	37.2 µM (inactive)	22.2 µM (inactive)	3.6 µM (inactive)	46.1 µM (inactive)
O=C1/C(=N\NC(=S)NC2CCCCC2)c2cc([N+](=O)[O-])ccc2N1CN1CCOCC1	3.9 µM (inactive)	13 µM (inactive)	15.8 µM (inactive)	5.86 µM (inactive)	12.4 µM (inactive)	3.3 µM (inactive)	6.25 µM (inactive)	6.31 µM (inactive)	5.04 µM (inactive)	1.14 µM (inactive)	4.48 µM (inactive)	11.3 µM (inactive)	6.76 µM (inactive)	7.89 µM (inactive)	11.4 µM (inactive)	5.11 µM (inactive)	3.13 µM (inactive)	0.382 µM (active)	3.16 µM (inactive)
